Assays:
MCF7 = experiment: cells; format: functional, cell-based; conditions: Homo sapiens
Description: Antitumor activity against human MCF7 cells

MCF-10A = experiment: cells; format: functional, cell-based; conditions: Homo sapiens
Description: Antitumor activity against human MCF10A cells

[1] = target: T1, Histone deacetylase (Homo sapiens) (UniProt Q13547+O15379+Q9UBN7+Q92769+Q9UQL6+Q8WUI4+Q9BY41+Q96DB2+P56524+Q9UKV0+Q969S8); conditions: HeLa, at 5 µM
Description: Inhibition of HDAC from human HeLa cells assessed as of histone H3 acetylation at 5 uM

DU-145 = experiment: Antitumor activity against human DU145 cells; format: functional, cell-based
DuPro = experiment: Antitumor activity against human DuPro cells; format: functional, cell-based
NCI-H157 = experiment: Antitumor activity against human NCI-H157 cells by MTT assay; format: functional, cell-based
[2] = Antitumor activity against human H82 cells; format: functional, cell-based; conditions: NCI-H82
A549 [3] = experiment: Antitumor activity against human A549 cells; format: functional, cell-based
A549 [4] = experiment: Antitumor activity against human A549 cells xenografted nu/nu Fox Chase mouse assessed as reduction in tumor growth at 75 mg/kg; format: functional; set-up: scale not given: the % may be the effect or the level left
A549 [5] = experiment: Antitumor activity against human A549 cells xenografted nu/nu Fox Chase mouse assessed as reduction in tumor growth at 125 mg/kg; format: functional; set-up: scale not given: the % may be the effect or the level left
NCI-H69 = experiment: Antitumor activity against human H69 cells; format: functional, cell-based
HeLa = experiment: Antiproliferative activity against human HeLa cells; format: functional, cell-based
Malme-3M = experiment: Antitumor activity against human MALME-3M cells; format: functional, cell-based
HT-29 = experiment: Antitumor activity against human HT-29 cells; format: functional, cell-based
[6] = Antitumor activity against human U251MG cells; format: functional, cell-based; conditions: U-251
PC-3 = experiment: cells; conditions: Homo sapiens
Description: Antitumor activity against human PC3 cells

[7] = target: T1, Histone deacetylase (Homo sapiens); experiment: Inhibition of HDAC from human HeLa cells assessed as fold induction of alpha tubulin acetylation; format: cell-based
L1210 = experiment: Antitumor activity against mouse L1210 cells; format: functional, cell-based
cells = conditions: Mus musculus, ML1
Description: Antitumor activity against mouse ML1 cells

## Cc1ccc(CNCCCCNC(=O)CCCCCC(=O)NCc2ccc(C(=O)Nc3ccccc3N)cc2)cc1
MCF7
  IC50: 900 nM
MCF-10A
  IC50: 24000 nM
[1]
  inhibition: 48.1%

## CCNCCCCNC[C@H]1C[C@@H]1CNCCCCNC[C@H]1C[C@@H]1CNCCCCNCC
DU-145
  IC50: 120 nM
DuPro
  IC50: 120 nM

## CCNCCCNCCCNCCCNCC(CC)CC
NCI-H157
  IC50: 800 nM

## Cc1cccc(NC(=O)c2ccc(CNC(=O)CCCCCCC(=O)NCCCNCCCCNCCC(c3ccccc3)c3ccccc3)cc2)c1
MCF7
  IC50: > 30000 nM
MCF-10A
  IC50: > 30000 nM
[1]
  inhibition: 42.6%

## c1ccc(-c2ccccc2CNCCCNCCCNCCCNCc2ccccc2-c2ccccc2)cc1
NCI-H157
  IC50: 4200 nM

## Nc1ccccc1NC(=O)c1ccc(CNC(=O)CCCCCCC(=O)NCCCNCCCCNCCC(c2ccccc2)c2ccccc2)cc1
MCF7
  IC50: > 30000 nM
MCF-10A
  IC50: > 30000 nM

## CCNCCCNCCCCNCCCNCCC(C)C
NCI-H157
  IC50: 1700 nM

## CCNCCCNCCCNCCCNCCC(C)C
NCI-H157
  IC50: 600 nM

## CCNC[C@H]1C[C@@H]1CNCCCCNC[C@H]1C[C@@H]1CNCC
DU-145
  IC50: 60 nM
DuPro
  IC50: 60 nM

## Nc1ccccc1NC(=O)c1ccc(CNC(=O)CCCCC(=O)NCCCNCCCCNCCC(c2ccccc2)c2ccccc2)cc1
MCF7
  IC50: > 30000 nM
MCF-10A
  IC50: > 30000 nM
[1]
  inhibition: 48.4%

## CCNCCCNCCCNCCCNC[C@@H](C)CC
NCI-H157
  IC50: 1300 nM
[2]
  IC50: 1300 nM

## CCNCCCNCCCNCCCNC[C@H](C)CO
A549 [3]
  IC50: 700 nM
NCI-H157
  IC50: 2200 nM
A549 [4]
  Activity: 65%
A549 [5]
  Activity: 65%
[2]
  IC50: 700 nM
NCI-H69
  IC50: 700 nM

## NCCCNCCCCCCCCNCCCN
HeLa
  IC50: 5000 nM

## CCNCCCNCCCCNCCCNCCC(C)(C)C
A549 [3]
  IC50: 900 nM
NCI-H157
  IC50: 1800 nM
[2]
  IC50: 900 nM
NCI-H69
  IC50: 900 nM

## C=C(C)CNCCCNCCCNCCCNCC
NCI-H157
  IC50: 700 nM

## FC(F)(F)Sc1ccc(CNCCCNCCCNCCCNCc2ccc(SC(F)(F)F)cc2)cc1
NCI-H157
  IC50: 3600 nM

## CC(C)NCCCNCCCCNCCCNC(C)C
Malme-3M
  IC50: 3000 nM

## c1ccc(C(CCNCCCNCCCCNCCCNCCC(c2ccccc2)c2ccccc2)c2ccccc2)cc1
NCI-H157
  IC50: 3800 nM

## CCNCCCNCc1ccccc1CNCCCNCC
DU-145
  IC50: > 30000 nM
A549 [3]
  IC50: > 30000 nM
HT-29
  IC50: > 30000 nM
[6]
  IC50: > 30000 nM
MCF7
  IC50: > 30000 nM
PC-3
  IC50: > 30000 nM

## CCNCCCNCC1CCC1CNCCCNCC (stereo unspecified)
DU-145
  IC50: ≥ 100 nM
A549 [3]
  IC50: ≥ 100 nM
HT-29
  IC50: ≥ 100 nM
[6]
  IC50: ≥ 100 nM
MCF7
  IC50: ≥ 100 nM
PC-3
  IC50: ≥ 100 nM

## CCNCCCCNC[C@@H]1C[C@H]1NCCCCNCC
DU-145
  IC50: 250 nM
A549 [3]
  IC50: 250 nM
HT-29
  IC50: 250 nM
[6]
  IC50: 250 nM
MCF7
  IC50: > 30000 nM
PC-3
  IC50: 250 nM

## CC(C)(C)c1ccc(CNCCCCNCCCNC(=O)CCCCCC(=O)NO)cc1
[7]
  fold change (FC): 253

## CC(C)c1ccc(CNCCCNCCCNCCCNCc2ccc(C(C)C)cc2)cc1
NCI-H157
  IC50: 4100 nM

## CCNCCCNCCCNCCCNCC [BIS(ETHYL)NORSPERMINE]
L1210
  IC50: 200 nM
Malme-3M
  IC50: 200 nM

## COc1cc(C(C)(C)C)cc(C(C)(C)C)c1CNCCCNCCCNCCCNCc1c(OC)cc(C(C)(C)C)cc1C(C)(C)C
NCI-H157
  IC50: 4000 nM

## c1ccc(C(CCNCCCNCCCNCCCNCCC(c2ccccc2)c2ccccc2)c2ccccc2)cc1
NCI-H157
  IC50: 4100 nM

## CC1(C)C2CCC(CNCCCNCCCNCCCNCC3CCC4CCC3C4(C)C)C1CC2 (stereo unspecified)
NCI-H157
  IC50: 2800 nM

## Nc1ccccc1NC(=O)c1ccc(CNC(=O)OCc2cccnc2)cc1 [ENTINOSTAT]
cells
  IC50: 750 nM

## CCNCCCNCCCNCCCNCCSCC
NCI-H157
  IC50: 300 nM

## c1ccc(-c2ccccc2CNCCCCNCCCNCc2ccccc2-c2ccccc2)cc1
NCI-H157
  IC50: 4000 nM

## CCNCC[C@@H](O)CNCCCCNC[C@H](O)CCNCC
L1210
  IC50: 600 nM

## CCNCCCNC/C=C\CNCCCNCC
DU-145
  IC50: 250 nM
A549 [3]
  IC50: 250 nM
HT-29
  IC50: 250 nM
[6]
  IC50: 250 nM
MCF7
  IC50: 9250 nM
PC-3
  IC50: 250 nM
